Measurements published in US4987126A, “3'-deamino-4'-deoxy-4'-amino anthracyclines” (Farmitalia Carlo Erba S.r.l., priority 1988, dated 1991).

Key:
P388 ascitic leukemia = assay: Effect against P388 ascitic leukemia; format: in vivo, murine (CDF1 mice); conditions: for T/C % (median survival time of treated mice/median survival time of control × 100): P388, CDF1 mice, 10^6 cells i.v., single i.v. dose day 1 at optimal dose (mg/Kg): DNR 22.5, DXR 16.9, Ia 19.5, IIa 4; for Toxic death: P388-bearing CDF1 mice, autoptic findings, at optimal dose (mg/Kg): DNR 22.5, DXR 16.9, Ia 19.5, IIa 4
Description: (§1) The antileukemic activity of Ia and IIa, in comparison with DXR (doxorubicin) and DNR (daunorubicin), was tested against murine P388 and Gross Leukemias.
(§2) The compounds were tested by dissolving them, as hydrochlorides, in water.
^a Experiments were performed in CDF1 mice, inoculated i.v. with
(§3) ^b Single i.v. dose on day 1 after tumor inoculum.
(§4) ^c Median survival time of treated mice/median survival time of
^d Evaluated on the basis of autoptic findings.

murine Gross leukemia = assay: Effect against murine Gross leukemia; format: in vivo, murine (C3H/He mice); conditions: for T/C % (median survival time of treated mice/median survival time of control × 100): Gross leukemia, C3H/He mice, 2 × 10^6 cells i.v., single i.v. dose day 1 at optimal dose (mg/Kg): DNR 15, DXR 13-16.9, Ib 65, Ia 12.5, IIa 4, Id 6.7, IIc 1; for Toxic death: Gross leukemia-bearing C3H/He mice, autoptic findings, at optimal dose (mg/Kg): DNR 15, DXR 13-16.9, Ib 65, Ia 12.5, IIa 4, Id 6.7, IIc 1; for potency on Gross leukemia (in words): among all compounds tested; for activity on increase of the survival time of mice, Gross leukemia (in words): mouse, in vivo
Description: as §1, §2
^a Experiments were performed in C3H/He mice, inoculated i.v. with 2
as §3, §4
^3 Evaluated on the basis of autoptic findings.

[1] = test system: Human Colon ca. (LoVo/DXR); assay: Effect against Human Colon ca. (LoVo/DXR); format: in vivo, human (tumor transplanted in Swissnude mice); conditions: i.v. once a week for three weeks, 1 week after last treatment; optimal dose (mg/Kg): DXR 6, Ia 7.5, IIa 4
Description: as §2
(§5) ^a experiment was performed in Swissnude mice, transplanted s.c. with
(§6) ^b treatment i.v. was carried out once a week for three weeks,
(§7) starting when the tumor was palpable
(§8) ^c percentage of tumor growth inhibition in respect to control was
(§9) calculated 1 week after the last treatment

[2] = test system: Murine Mammary ca. (MTV/DXR); assay: Effect against Murine Mammary ca. (MTV/DXR); format: in vivo; conditions: C3H/He mice, i.v. once a week for three weeks, optimal dose (mg/Kg): DXR 6, IIa 5; for tumor inhibition: 1 week after last treatment
Description: as §2
^a experiment was carried out in C3H/He mice, transplanted s.c. with
as §6, §7, §8, §9

[3] = test system: Human Colon adenocarcinoma (LoVo); assay: Effect against Human Colon adenocarcinoma (LoVo); format: in vivo, human (tumor transplanted in Swissnude mice); conditions: for tumor inhibition: i.v. once a week for three weeks, 1 week after last treatment, optimal dose (mg/Kg): DNR 8 tox, DXR 6, Ia 7.5, IIa 4-5; for activity on LoVo tumor (in words): in vivo
Description: as §2
^1 experiment was performed in Swissnude mice, transplanted s.c. with
as §6, §7, §8, §9

[4] = test system: human lung adenocarcinoma (A549); assay: Effect against human lung adenocarcinoma (A549); format: in vivo, human (tumor transplanted in Swissnude mice); conditions: i.v. once a week for three weeks, 1 week after last treatment; optimal dose (mg/Kg): DXR 6, Ia 9, IIa 5
Description: as §2, §5, §6, §7, §8, §9

Lewis Lung ca. = assay: Effect against Lewis Lung ca.; format: in vivo, mouse (C57 B1/6 mice); conditions: for tumor inhibition / T/C (median survival time of treated mice/median survival time of control × 100): C57 B1/6 mice, 10^5 cells i.v., i.v. once a week for three weeks from day 1, optimal dose (mg/Kg): DXR 6-7.5, DNR 8, Ia 7.5, IIa 4; for tumor inhibition: 1 week after last treatment; for tumor growth inhibition, Lewis lung ca. (in words) / survival time of mice, Lewis lung ca. (in words): model sensitive to DXR; for survival time of mice, Lewis lung ca. (in words): versus DXR
Description: as §2
^a experiment was performed in C57 B1/6 mice, inoculated i.v. with
as §6
starting on day 1 after tumor transplant
as §8, §9
^d median survival time of treated mice/median survival time of […]

solid tumors = assay: evaluation against different human and solid tumors (Tables 4-8, overall); format: in vivo, human and murine; conditions: IIa versus Ia
Description: as §2

Row | Compound | T/C % (median survival time of treated mice/median survival time of control × 100) (P388 ascitic leukemia) [%] | Toxic death (P388 ascitic leukemia) | T/C % (median survival time of treated mice/median survival time of control × 100) (murine Gross leukemia) | Toxic death (murine Gross leukemia) | potency on Gross leukemia (in words) (murine Gross leukemia) | tumor inhibition [1] [%] | tumor inhibition [2] [%] | T/C [2] [%] | tumor inhibition [3] | activity on LoVo tumor (in words) [3] | tumor inhibition [4] [%] | tumor inhibition (Lewis Lung ca.) | T/C (median survival time of treated mice/median survival time of control × 100) (Lewis Lung ca.) | tumor growth inhibition, Lewis lung ca. (in words) (Lewis Lung ca.) | survival time of mice, Lewis lung ca. (in words) (Lewis Lung ca.) | potency and activity against all solid tumors tested (in words) (solid tumors) | activity on increase of the survival time of mice, Gross leukemia (in words) (murine Gross leukemia) | toxicity mark at the dose ([3]; 8 mg/Kg i.v. once a week for three weeks, Swissnude mice)
1 | CC(=O)[C@]1(O)Cc2c(O)c3c(c(O)c2[C@@H](O[C@H]2CC[C@@H](N)[C@H](C)O2)C1)C(=O)c1ccccc1C3=O [Compound IIa, 4-demethoxy-3'-deamino-4'-deoxy-4'-epi-aminodaunorubicin] | 225 | 0/10 | 160% | 0/10 | most potent | 41 | 44 | 146 | 54-56% | same activity than LoVo/DXR | 49 | 84% | 122% | active, as DXR | less active | more potent and active than Ia | – | –
2 | COc1cccc2c1C(=O)c1c(O)c3c(c(O)c1C2=O)C[C@@](O)(C(C)=O)C[C@@H]3O[C@H]1C[C@H](N)[C@H](O)[C@H](C)O1 [DNR, daunorubicin, reference compound] | 222 | 0/10 | 200% | 0/10 | – | – | – | – | 54% | – | – | 47% | 135% | – | – | – | active | tox
3 | COc1cccc2c1C(=O)c1c(O)c3c(c(O)c1C2=O)C[C@@](O)(C(=O)CO)C[C@@H]3O[C@H]1C[C@H](N)[C@H](O)[C@H](C)O1 [DXR, doxorubicin, reference compound] | 225 | 0/10 | 200-250% | 0/10 | – | 30 | 52 | 84 | 62% | – | 44 | 85-95% | 148-169% | sensitive to DXR | – | – | active | –
4 | C[C@@H]1O[C@@H](O[C@H]2C[C@](O)(C(=O)CO)Cc3c(O)c4c(c(O)c32)C(=O)c2ccccc2C4=O)CC[C@H]1N [IIc, 4-demethoxy-3'-deamino-4'-deoxy-4'-epi-aminodoxorubicin] | – | – | 217% | 0/10 | most potent | – | – | – | – | – | – | – | – | – | – | – | – | –
5 | CC(=O)[C@]1(O)Cc2c(O)c3c(c(O)c2[C@@H](O[C@H]2CC[C@H](N)[C@H](C)O2)C1)C(=O)c1ccccc1C3=O [Ia, 4-demethoxy-3'-deamino-4'-deoxy-4'-aminodaunorubicin] | 200 | 0/10 | 240% | 0/10 | – | 13 | – | – | 11% | completly inactive | 13 | 7% | 104% | inactive | inactive | – | – | –
6 | COc1cccc2c1C(=O)c1c(O)c3c(c(O)c1C2=O)C[C@@](O)(C(C)=O)C[C@@H]3O[C@H]1CC[C@H](N)[C@H](C)O1 [Ib, 3'-deamino-4'-deoxy-4'-aminodaunorubicin] | – | – | 240% | 0/10 | – | – | – | – | – | – | – | – | – | – | – | – | – | –
7 | COc1cccc2c1C(=O)c1c(O)c3c(c(O)c1C2=O)C[C@@](O)(C(=O)CO)C[C@@H]3O[C@H]1CC[C@H](N)[C@H](C)O1 [Id, 3'-deamino-4'-deoxy-4'-aminodoxorubicin] | – | – | 200% | 0/10 | – | – | – | – | – | – | – | – | – | – | – | – | – | –
